Test results taken from patent publication US20060276464A1, “Diarylsulfone sulfonamides and use thereof” (Wyeth, priority 2005, published 2006).
Like-named read-outs stand apart in the source and are kept apart here.

How the values were obtained:
SFRP-1 [1] = biological target: T1, SFRP-1 (Homo sapiens, UniProt Q8N474); test: Fluorescence polarization binding assay (competitive displacement of a probe compound from SFRP-1); conditions: fluorescence anisotropy, 45 nM SFRP-1, 20 nM probe;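 further: test compound competes with a fluorescent probe held by SFRP-1, seen as a drop in probe anisotropy after incubation in darkness, with anisotropy as function of rising compound dose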
T1 sequence (Q8N474 32-314): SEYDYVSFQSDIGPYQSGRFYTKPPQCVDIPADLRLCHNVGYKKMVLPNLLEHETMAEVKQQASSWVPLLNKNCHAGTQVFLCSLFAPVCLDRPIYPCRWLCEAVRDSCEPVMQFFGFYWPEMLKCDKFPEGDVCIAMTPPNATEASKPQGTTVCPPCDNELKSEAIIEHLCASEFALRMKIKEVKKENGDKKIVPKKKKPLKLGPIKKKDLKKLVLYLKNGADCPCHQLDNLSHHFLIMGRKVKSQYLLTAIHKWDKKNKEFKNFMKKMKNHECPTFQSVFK

SFRP-1 [2] = biological target: T1, SFRP-1; test: Cell-based assay for in vitro measurement of SFRP-1/SARP2 antagonist activity (U2OS cells co-transfected with 16x TCF-tk-Luciferase reporter, Wnt and hSFRP-1); conditions: for fold induction at 10 µM / fold induction at 15 µM: U2OS; for fold induction at 10 µM: read-out: Fold Induction with SFRP-1, U2OS cells, single dose 10 μM, luciferase reporter, fold induction over SFRP-1 control;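 on all read-outs here: U2OS cells co-transfected with a TCF-tk luciferase reporter, a Wnt vector, hSFRP-1 or empty vector and CMV-βgal, luciferase luminescence read in cell lysates alongside βgal activity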
[3] = read-out: Fold Induction with SFRP-1, Conc 15 μM, with SFRP-1, fold induction over SFRP-1 control, single dose
[4] = read-out: Fold Induction without SFRP-1, Conc 15 μM, without SFRP-1, single dose

| Compound | IC50 (SFRP-1 [1]) [nM] | EC50 (SFRP-1 [2]) [nM] | fold induction at 10 µM (SFRP-1 [2]) | fold induction at 15 µM (SFRP-1 [2]; [3]) | fold induction at 15 µM (SFRP-1 [2]; [4]) |
| --- | --- | --- | --- | --- | --- |
| CN(CCNS(=O)(=O)c1cc(S(=O)(=O)c2ccccc2)ccc1C(F)(F)F)C(=O)N1CCCC1 [Example 833, N-methyl-N-[2-({[5-(phenylsulfonyl)-2-(trifluoromethyl)phenyl]sulfonyl}amino)ethyl]pyrrolidine-1-carboxamide] | 400 | 1260 | 3.4 |  |  |
| CCc1ccc(S(=O)(=O)c2ccccc2)cc1S(=O)(=O)NCCCN(CC)CC [Example 230, N-[3-(diethylamino)propyl]-2-ethyl-5-(phenylsulfonyl)benzene sulfonamide] | 16000 |  |  | 3.2 | 1.2 |
| CC(C)c1ccc(S(=O)(=O)c2ccc(F)cc2)cc1S(=O)(=O)NCCc1ccccn1 [Example 320, 5-[(4-fluorophenyl)sulfonyl]-2-isopropyl-N-(2-pyridin-2-ylethyl)benzenesulfonamide] | 900 |  |  | 2.8 | 1.2 |
| COC(=O)CNC(=S)N1CCC(NS(=O)(=O)c2cc(S(=O)(=O)c3ccc(F)cc3)ccc2C(C)C)CC1 [Example 697, methyl N-({4-[({5-[(4-fluorophenyl)sulfonyl]-2-isopropylphenyl}sulfonyl)amino]piperidin-1-yl}carbonothioyl)glycinate] | 400 | 452 | 3.7 |  |  |
| O=C(c1ccc(F)cc1Cl)N1CCC(NS(=O)(=O)c2cc(S(=O)(=O)c3ccccc3)ccc2C(F)(F)F)CC1 [Example 716, N-[1-(2-chloro-4-fluorobenzoyl)piperidin-4-yl]-5-(phenylsulfonyl)-2-(trifluoromethyl)benzenesulfonamide] | 300 | 1760 | 4.2 |  |  |
| CC[C@H](CO)NS(=O)(=O)c1cc(S(=O)(=O)c2ccccc2)ccc1C(F)(F)F [Example 784, N-[(1R)-1-(hydroxymethyl)propyl]-5-(phenylsulfonyl)-2-(trifluoromethyl)benzenesulfonamide] | 3000 |  | 3 |  |  |

Continued by falling IC50 (SFRP-1 [1]), values first:

| IC50 (SFRP-1 [1]) [nM] | EC50 (SFRP-1 [2]) [nM] | fold induction at 10 µM (SFRP-1 [2]) | fold induction at 15 µM (SFRP-1 [2]; [3]) | fold induction at 15 µM (SFRP-1 [2]; [4]) | Compound |
| --- | --- | --- | --- | --- | --- |
| 300 | 4850 | 3.1 |  |  | O=C(CN1CCC(NS(=O)(=O)c2cc(S(=O)(=O)c3ccccc3)ccc2C(F)(F)F)CC1)c1ccccc1 [Example 751, N-[1-(2-oxo-2-phenylethyl)piperidin-4-yl]-5-(phenylsulfonyl)-2-(trifluoromethyl)benzenesulfonamide] |
| 250 | 797 | 4.1 |  |  | COc1ccc(S(=O)(=O)c2ccc(C(F)(F)F)c(S(=O)(=O)NCCC#N)c2)cc1 [Example 820, N-(2-cyanoethyl)-5-[(4-methoxyphenyl)sulfonyl]-2-(trifluoromethyl)benzenesulfonamide] |
| 250 | 392 |  |  |  | O=C(c1ccnc(Cl)c1)N1CCC(NS(=O)(=O)c2cc(S(=O)(=O)c3ccccc3)ccc2C(F)(F)F)CC1 [Example 978, N-[1-(2-chloroisonicotinoyl)piperidin-4-yl]-5-(phenylsulfonyl)-2-(trifluoromethyl)benzenesulfonamide] |
| 200 | 937 | 4.2 |  |  | N#CCN1CCC(NS(=O)(=O)c2cc(S(=O)(=O)c3ccccc3)ccc2C(F)(F)F)CC1 [Example 750, N-[1-(cyanomethyl)piperidin-4-yl]-5-(phenylsulfonyl)-2-(trifluoromethyl)benzenesulfonamide] |
| 20 | 78 |  |  |  | CC(C)(C)OC(=O)N1C[S+]([O-])C[C@H]1C(=O)N1CCC(NS(=O)(=O)c2cc(S(=O)(=O)c3ccccc3)ccc2C(F)(F)F)CC1 (stereo partly drawn) [Example 1061, tert-butyl (4R)-4-{[4-({[5-(phenylsulfonyl)-2-(trifluoromethyl)phenyl]sulfonyl}amino)piperidin-1-yl]carbonyl}-1,3-thiazolidine-3-carboxylate 1-oxide] |
